# Where two headings read alike, the source gives them in different places.
# System: patients with IPSS Low to Intermediate-1 Risk Myelodysplastic Syndrome
# Conditions: for patients achieving significant RBC transfusion reduction: no prior DMTI, five of 11 patients
# Protocol: Eighty-seven patients were randomized and treated at 23 investigational sites. After initial dose ranging in 14 patients, two dose levels were selected for further study. Subsequently, 37 patients were treated at 3 grams daily for two weeks followed by a one week rest period, and 36 patients were treated at 2 grams daily for three weeks followed by a one week rest period. The data on these 73 patients was pooled for this preliminary analysis.
smiles,measurement,setting,value
"CCOC(=O)[C@@H](N)CCC(=O)N[C@@H](CSCc1ccccc1)C(=O)N[C@@H](C(=O)OCC)c1ccccc1 [Telintra, ethyl (2S)-2-amino-5-[[(2R)-3-benzylsulfanyl-1-[[(1R)-2-ethoxy-2-oxo-1-phenylethyl]amino]-1-oxopropan-2-yl]amino]-5-oxopentanoate]","increase in response rate, lenalidomide pre-treated vs not pre-treated patients",46% vs 22% response rate,over 100%
same,cytogenetic complete responses,all study patients,three cytogenetic complete responses
same,HI-E Response Rate (95% Confidence Interval),"efficacy evaluable patients with prior Revlimid (lenalidomide) treatment: Yes, N=13, listed as ezatiostat hydrochloride",about 46%
same,complete cytogenetic response in del 5q minus patients,"four patients enrolled with del 5q minus, one responder had failed prior Revlimid",two had a complete cytogenetic response
same,change in odds for a HI-E response with prior DMTI treatment,"logistic regression analysis, p=0.023",five-fold decrease
same,patients achieving significant RBC transfusion reduction,no prior Revlimid,45%
same,duration of complete remission following discontinuation of therapy,one patient (Quddus et al.),more than 12 months
same,patients achieving significant RBC transfusion reduction,prior Revlimid,45%

# Source: patent US8759303B2, “Compositions and methods for treating myelodysplastic syndrome” (Telik, Inc., priority 2010, dated 2014)
